One block for each compound: values may come before it.
How the values were obtained:
[1] = test system: normal epithelial cell strains HMEC, ADO74, NHEK, OKP-7; experiment: [^3H]retinol esterification in normal epithelial cell strains; assay type: cell-based, human; conditions: 50 nM [^3H]retinol in the medium
Protocol: (§1) All retinoid solutions and samples were handled under red or dim light. […] A separate control consisting of labeling medium without cells was included during the incubation period. Cells and one-fourth of the media were collected. Cells were washed once with 0.5 ml of phosphate-buffered saline (PBS) and removed from the monolayer in 0.5 ml PBS by scraping. Samples were stored at −70° C. until retinoid extraction. The cell numbers were counted from parallel dishes from each treatment at the time of cell harvest. The retinoids were extracted as described previously (McLean, et al. Clin. Chem. 1982, 28:693-696). Non-radiolabeled retinoid standards were added to the samples prior to extraction. Briefly, 350 μl acetonitrile/butanol (50:50, v/v), 0.1% butylated hydroxytoluene (BHT) was added to 0.5 ml of cells or medium samples. The mixtures were vortexed thoroughly for 30 sec. After addition of 300 μl of a saturated (1.3 kg/liter) K2HPO4 solution and thorough mixing, the samples were centrifuged for 10 min at 3000 g. […] The HPLC analysis was performed using a Waters Millenium system (Waters Corp.) to separate the various retinoids. […] Non-radiolabeled retinoid standards were run concurrently and monitored at a wavelength of 340 nm while a Packard A-500 radiochromatography detector (Packard Instruments, Downers Grove, Ill.) was used to monitor the labeled retinoids. […]

[2] = test system: fibroblast cell strains GM0970 and CCD42-SK; experiment: [^3H]retinol metabolism in normal fibroblast cell strains; assay type: cell-based, human; conditions: 15-24 h culture in the presence of [^3H]retinol
Protocol: as §1

[3] = test system: human umbilical vein endothelial cells (HUVEC); experiment: [^3H]retinol metabolism in HUVEC; assay type: cell-based; conditions: 15 h culture, 50 nM [^3H]retinol
Protocol: as §1

[4] = test system: normal human bronchial epithelial cells (NHBE); experiment: [^3H]retinol esterification in NHBE; assay type: cell-based; conditions: 15 h culture
Protocol: as §1

[5] = test system: normal human epidermal keratinocytes (NHEK); experiment: [^3H]retinol esterification in NHEK; assay type: cell-based; conditions: 15 h culture
Protocol: as §1

[6] = test system: MCF-7 breast carcinoma cell line; experiment: [^3H]retinol esterification in MCF-7; assay type: cell-based, human; conditions: MCF-7, 22 h culture, 50 nM
Protocol: as §1

[7] = test system: SCC-12 skin squamous carcinoma line; experiment: [^3H]retinol esterification in SCC-12; assay type: cell-based, human; conditions: SCC-12, 22 h culture, 50 nM
Protocol: (§2) The retinoids were extracted as described previously (McLean, et al. Clin. Chem. 1982, 28:693-696). Non-radiolabeled retinoid standards were added to the samples prior to extraction. Briefly, 350 μl acetonitrile/butanol (50:50, v/v), 0.1% butylated hydroxytoluene (BHT) was added to 0.5 ml of cells or medium samples. The mixtures were vortexed thoroughly for 30 sec. After addition of 300 μl of a saturated (1.3 kg/liter) K2HPO4 solution and thorough mixing, the samples were centrifuged for 10 min at 3000 g. The upper organic layer was collected and transferred to an injector vial for automated HPLC analysis.
(§3) The HPLC analysis was performed using a Waters Millenium system (Waters Corp.) to separate the various retinoids. Samples were applied to an analytical 5 μm reverse-phase C18 column (Vydac, Hesperia, Calif.) at a flow rate of 1.5 ml/min. The gradient consisted of a 35 min linear gradient from 15 mM ammonium acetate, pH 6.5, in water to 85% acetonitrile in a 10 min linear gradient from 85% acetonitrile to acetonitrile-dichloromethane (80:20) followed by a 15 min hold. Non-radiolabeled retinoid standards were run concurrently and monitored at a wavelength of 340 nm while a Packard A-500 radiochromatography detector (Packard Instruments, Downers Grove, Ill.) was used to monitor the labeled retinoids. […]

[8] = test system: SCC-40 carcinoma line from the soft palate; experiment: [^3H]retinol esterification in SCC-40; assay type: cell-based, human; conditions: SCC-40, 22 h exposure, 50 nM
Protocol: as §1

[9] = test system: OKP-7 cells; experiment: [^3H]retinol pulse chase in OKP-7; assay type: cell-based, human
Protocol: (§4) For the pulse chase experiments, the cells were cultured for 24 h in 100 nM [^3H]retinol. Cells were then rinsed three times with warm PBS over a 30 minute period, and then incubated in growth medium without [^3H]retinol for an additional one to eight days. At various times following the removal of [^3H]retinol from the medium, dishes of cells were harvested and retinoids were extracted and subjected to HPLC analysis.
as §2
as §3, with “The gradient consisted of a 35 min linear gradient from 15 mM ammonium acetate, pH 6.5, in water to 85% acetonitrile in a 10 min linear gradient from 85% acetonitrile to acetonitrile-dichloromethane (80:20) followed by a 15 min hold.” left out
(§5) Therefore, in this series of experiments the cells were cultured in the presence of 100 nM [^3H]retinol and 900 nM retinol in the medium for 24 h, followed by the removal of the [^3H]retinol from the medium. The cells were washed several times, and then dishes of cells were harvested at various times following the removal of [^3H]retinol from the medium, retinoids were extracted from the cells, and the [^3H]retinoids were analyzed by HPLC.

[10] = test system: ADO74 cells; experiment: [^3H]retinol pulse chase in ADO74; assay type: cell-based, human
Protocol: as §4, §2
as §3, with “The gradient consisted of a 35 min linear gradient from 15 mM ammonium acetate, pH 6.5, in water to 85% acetonitrile in a 10 min linear gradient from 85% acetonitrile to acetonitrile-dichloromethane (80:20) followed by a 15 min hold.” left out
as §5

[11] = test system: SCC-40 squamous cell carcinoma line; experiment: [^3H]retinol pulse chase in SCC-40; assay type: cell-based, human
Protocol: as §4
(§6) The retinoids were extracted as described previously (McLean, et al. Clin. Chem. 1982, 28:693-696). Non-radiolabeled retinoid standards were added to the samples prior to extraction. […]
(§7) The HPLC analysis was performed using a Waters Millenium system (Waters Corp.) to separate the various retinoids. […] Non-radiolabeled retinoid standards were run concurrently and monitored at a wavelength of 340 nm while a Packard A-500 radiochromatography detector (Packard Instruments, Downers Grove, Ill.) was used to monitor the labeled retinoids. […]
as §5

[12] = test system: MDA-MB-231 breast carcinoma line; experiment: [^3H]retinol pulse chase in MDA-MB-231; assay type: cell-based, human
Protocol: as §4, §6, §7, §5

[13] = test system: LRAT mRNA; experiment: Northern blot analysis of LRAT transcripts after culture with retinoic acid; assay type: cell-based, human; conditions: 1 μM retinoic acid for 48 h; HUVEC, CCD42-SK, GM0970, HMEC, HNBE, NT2
Text: (§8) Total cellular RNA was isolated from cultured cells using RNA Stat-60 according to the manufacturer's instruction (Tel-Test, Friendswood, Tex.). RNA was electrophoretically fractionated by size on 1% agarose/2.2 M formaldehyde gels, transferred to nylon filters by blotting, and attached to the filters using a UV Stratalinker 1800. The cDNA probes used in this analysis were radiolabeled with [^32P]dCTP using a random primer labeling kit (Boehringer Mannheim, Indianapolis, Ind.) according to the manufacturer's directions. Glyceraldehyde phosphate dehydrogenase cDNA was used as a probe for Northern blots as described previously (Guo, et al. Cancer Res. 1998, 58:166-176; Chen, et al. J. Biol. Chem. 1996, 271:14971-14980). AHD-2 cDNA, isolated from a murine liver cDNA library by this laboratory (Chen, Mol. Pharm. 1994, 46:88-96), was used as a probe; this cDNA encodes an aldehyde dehydrogenase class I enzyme, also called ALDH-1 in human. The human LRAT cDNA clone was an Eco RI fragment (840 bp) as described (Ruiz, et al. J. Biol. Chem. 1999, 274:3834-3841). The human neutral, bile salt independent retinyl ester hydrolase and the hepatic, bile sale dependent retinyl ester hydrolase were EST clones #g4069398 and #g2237729, respectively, from Genome Systems (St. Louis, Mo.). […]

[14] = test system: RA hydroxylase (CYP26) gene; experiment: Northern blot analysis of RA hydroxylase (CYP26) gene in MCF-7; assay type: cell-based, human; conditions: MCF-7 following retinoic acid addition
Text: as §8

[15] = test system: RA hydroxylase (CYP26) gene; experiment: Northern blot analysis of RA hydroxylase (CYP26) gene in other tumor lines and normal cell strains; assay type: cell-based, human; conditions: other tumor lines or normal cell strains cultured with or without RA
Text: as §8

[16] = OKP-7, four to eight days after [^3H]retinol removal
[17] = ADO74, four to eight days after [^3H]retinol removal

time by which all of the [^3H]retinol in the medium had been esterified [1]: 6 to 8 h
esterification of [^3H]retinol to retinyl esters [4]: extensive esterification
esterification of [^3H]retinol to retinyl esters [5]: extensive esterification
[^3H]retinol esterification [7]: some [^3H]retinol esterification
intracellular concentration of [^3H]retinyl esters ([9]; OKP-7, four days after removal of [^3H]retinol, 100 nM [^3H]retinol and 900 nM retinol for 24 h): approximately 26 μM
intracellular concentration of [^3H]retinoic acid [9, 16]: 1 to 2 µM
intracellular concentration of [^3H]retinol [9, 16]: 3 to 10 µM
intracellular concentration of [^3H]retinyl esters ([10]; ADO74, four days after removal of [^3H]retinol, 100 nM [^3H]retinol and 900 nM retinol for 24 h): ~30 µM
intracellular concentration of [^3H]retinoic acid [10, 17]: 1 to 2 µM
intracellular concentration of [^3H]retinol [10, 17]: 3 to 10 µM
time after removal by which no [^3H]retinol is detectable intracellularly ([11]; SCC-40): ≤ 24 h
retinyl esters at the time of [^3H]retinol removal ([11]; SCC-40, day 0): no detectable retinyl esters
time after removal by which no [^3H]retinol is detectable intracellularly ([12]; MDA-MB-231): ≤ 24 h
retinyl esters at the time of [^3H]retinol removal ([12]; MDA-MB-231, day 0): no detectable retinyl esters
Compound: [^3H]retinol
retinol metabolism [2]: Essentially no retinol metabolism occurred
retinyl esters found [3]: only trace amounts of retinyl esters were found
[^3H]retinol esterification [6]: did not exhibit [^3H]retinol esterification
[^3H]retinol esterification [8]: did not exhibit any significant [^3H]retinol esterification

expression of RA hydroxylase (CYP26) gene [14]: strongly expressed
Compound: CC1=C(/C=C/C(C)=C/C=C/C(C)=C/C(=O)O)C(C)(C)CCC1 [retinoic acid, all-trans retinoic acid]
effect on levels of LRAT mRNA [13]: a slight increase in LRAT mRNA
expression of RA hydroxylase (CYP26) gene [15]: not expressed at detectable levels
